Experimental data from article PMC4757834, “The N-terminal sequence of the extrinsic PsbP protein modulates the redox potential of Cyt b559 in photosystem II” (Scientific Reports, 2016).
Where no end group is shown, it is not given here.

Tests used:
[1] = biological target: PsbE protein, the α subunit of Cytochrome b559 (spinach (endogenous in PSII membranes from spinach leaves)) (UniProt P69383)
PSII = assay: Oxygen-evolving activity of reconstituted PSII membranes (Clark-type oxygen electrode); assay type: biochemical, spinach; details: NaCl-washed PSII membranes, peptide:PSII 50:1 to 200:1, 5 mM CaCl2 and 5 mM NaCl, pH 6.5, 0.4 mM DCBQ; membranes without reconstitution = 100% (251 ~ 317 μmol O2 mg Chl^-1 h^-1); n = 3
Description: PSII oxygen-evolving activity was measured in the presence of 5 mM CaCl2 and 5 mM NaCl, and the rate of oxygen-evolution of PSII membranes without reconstitution was set at 100% (251 ~ 317 μmol O2 mg Chl^−1 h^−1 in independent experiments); n = 3, error bars = SEM. […] Oxygen-evolving activity here was measured in the presence of 5 mM CaCl2 and 5 mM NaCl, and the rate of oxygen-evolution for the PSII membranes without reconstitution (the control) was set at 100% (261 μmol O2 mg Chl^−1 h^−1).
PSII membranes, isolated from spinach leaves[56], were treated for 30 min with the buffer containing 1.5 M NaCl on ice to remove PsbP and PsbQ. […] In the control, MES buffer, without any peptide fragments, was used. After incubation for 1 h on ice, the reconstituted PSII samples were carried forward to determine the state of their redox forms of Cyt b559, oxygen-evolving activity, FTIR analysis and TL measurements. Where indicated, PSII samples were washed once, before the analysis, with buffer (25 mM MES-NaOH, pH 6.5, 5 mM NaCl, 5 mM CaCl2, 0.4 M sucrose). The oxygen-evolving activity of each PSII membrane sample was measured in this same buffer using a Clark-type oxygen-electrode (Hansatech, UK) in the presence of 0.4 mM 2,6-dichloro-p-benzoquinone (DCBQ) as an electron acceptor.

Cyt b559 in PSII = assay: Redox forms of Cyt b559 by stepwise reductive titration (absorption difference spectroscopy), reconstituted NaCl-washed PSII membranes; assay type: biochemical, spinach
[2] = tested on: OEC (Mn4CaO5 cluster) in PSII; assay: Light-induced S2/S1 FTIR difference spectroscopy; assay type: biochemical, spinach; details: peptide:PSII 200:1, pH 6.0, 5 mM CaCl2, 5 mM NaCl, 10 °C, 1800–1200 cm^-1

content of the HP form of Cyt b559 in NaCl-washed PSII membranes after reconstitution at 4:1 (PsbP:PSII); about 34% without reconstitution [1]	Substance	Rate of oxygen evolution (in words) (PSII)	Relative content of the HP form of Cyt b559 (Cyt b559 in PSII; NaCl-washed PSII membranes reconstituted with PsbP proteins at 4:1 or peptides at 200:1 (to PSII), 1 h on ice, 25 mM MES-NaOH pH 6.5, 5 mM NaCl, 5 mM CaCl2, 0.4 M sucrose, 559 nm, total Cyt b559 = 100%, n = 3 (controls: intact 59.3, NaCl-washed 33.7))	Relative content of the LP form of Cyt b559 (Cyt b559 in PSII; NaCl-washed PSII membranes reconstituted with PsbP proteins at 4:1 or peptides at 200:1 (to PSII), 1 h on ice, pH 6.5, total Cyt b559 = 100%, n = 3 (controls: intact 8.7, NaCl-washed 10.4))	Relative content of the IP form of Cyt b559 (Cyt b559 in PSII; NaCl-washed PSII membranes reconstituted with PsbP proteins at 4:1 or peptides at 200:1 (to PSII), 1 h on ice, pH 6.5, total Cyt b559 = 100%, n = 3 (controls: intact 32.0, NaCl-washed 55.9))	Restoration of HP Cyt b559 (in words) (Cyt b559 in PSII; reconstituted NaCl-washed PSII membranes, pH 6.5)	S2/S1 FTIR spectral intensity [2]
58%	recombinant PsbP-WT protein from Spinacia oleracea (from UniProt P12302 82-267) (natural protein)						
	pN15-∆A^1: pN15 lacking its N-terminal Ala^1 (YGEAANVFGKPKKN-NH2; UniProt P12302 83-96, looked up, fragment)	none of these mutated pN15 fragments showed any inhibitory effect on oxygen evolution	38.2%	13.6%	48.2%	This effect was not observed	moderate inhibitory effect
